This is an account of results in PMC6040651 (Pediatric blood & cancer, 2018).

Read-outs that look alike come from different tables or passages of the source.

A short description of series [1]: Vorinostat serum pharmacokinetics, cycle 1.
The conditions of series [2]: dosed continuously; pediatric relapsed solid tumors; cited from earlier work.
Series [3] in a line: Phase I dose escalation and toxicity assessment. Conditions: dose level 5 (430 mg/m^2/dose) + isotretinoin, n = 6.
In series [4] the test system is histone acetylation in PBMC. As to conditions: cited from earlier work.
The subject of series [5] is refractory/recurrent neuroblastoma. As to the kind of experiment: Antitumor activity. Conditions: vorinostat + isotretinoin. Format: in vivo, patients.
For series [6], the system named is xenografts from neuroblastoma cell lines. As to conditions: xenografts from four of six neuroblastoma cell lines; cited from earlier work.
Series [7] relates to acetylated histone H3 in PBMC. As to the kind of experiment: PBMC histone acetylation. The series is classed as in vivo, patients. Conditions: for Mean percent change in histone acetylation (HA) levels from baseline: PBMC.
Series [8] in a line: Isotretinoin pharmacokinetics, single sample on cycle 1 day 14. As to conditions: human, serum, oral, 80 mg/m^2/dose, 4 hr after the last dose of isotretinoin in cycle 1 (80 mg/m^2/dose twice daily), 12 patients.
Where [9] appears, read: all dose levels, n = 23/28, geometric mean (95% confidence interval), oral, cycle 1.
[10] abbreviates: dose level 1 (180 mg/m^2/dose), n = 6/7, geometric mean (95% confidence interval), oral, cycle 1.
[11] abbreviates: dose level 5—MTD (430 mg/m^2/dose), n = 9/12, geometric mean (95% confidence interval), oral, cycle 1.

The term AUC(0-inf) denotes the area under the concentration-time curve extrapolated to infinity. Low values mean less exposure, high ones more exposure. By half-life is commonly meant how long it takes for the measured level to halve. A higher half-life goes with slow decline. As for `O=C(CCCCCCC(=O)Nc1ccccc1)NO` [vorinostat, suberoylanilide hydroxamic acid], the “Clearance (Cl F obs)” value is 151 (115, 197) l/hr in series [1] (setting [9]); 152 (93, 250) l/hr in series [1] (setting [10]); 181 (76, 427) l/hr in series [1] (dose level 2 (230 mg/m^2/dose), n = 2/3, geometric mean (95% confidence interval), oral, cycle 1); 129 (64, 260) l/hr in series [1] (dose level 3 (300 mg/m^2/dose), n = 3/3, geometric mean (95% confidence interval), oral, cycle 1); 322 (159, 649) l/hr in series [1] (dose level 4 (360 mg/m^2/dose), n = 3/3, geometric mean (95% confidence interval), oral, cycle 1); 118 (79, 177) l/hr in series [1] (setting [11]). Besides, the Cmax in series [1] (setting [9]) was 428 (348, 526) ng/ml; in series [1] (human, serum, oral) it was 158 to 980 ng/mL; in series [1] (human, serum, po, 300 mg/m2), 552 ng/mL; in series [1] (human, serum, po, 430 mg/m2), 587 ng/mL. Further, the t½ in series [1] (setting [10]) is 2.6 (1.7, 4.0) hr; in series [1] (setting [11]), 3.2 (2.3, 4.5) hr. Besides, the AUC(0-inf) was 930 to 5780 ng·h/mL in series [1] (human, serum, oral); 2170 ng·h/mL in series [1] (human, serum, po); 1350 ng·h/mL in series [1] (human, serum, po, 180 mg/m2); 1670 ng·h/mL in series [1] (human, serum, po, 230 mg/m2); 2640 ng·h/mL in series [1] (human, serum, po, 300 mg/m2); 3250 ng·h/mL in series [1] (human, serum, po, 430 mg/m2). Further, the clearance in series [1] (human, serum, oral) is 967 to 7250 mL/min. The half-life in series [1] (human, serum, oral) is 72 to 606 min; in series [1] (human, serum, po, 230 mg/m2), 144 min. Also, in series [2], the “MTD of vorinostat alone” value is listed as 230 mg/m^2/day. Besides, the “Number of patients with grade 3+ upper respiratory infection” value is listed as 1 in series [3] (all cycles) and 0 in series [3] (first cycle). Also, the “Histone acetylation in PBMC” value in series [4] (continuous vorinostat MTD (230 mg/m^2/dose)) is recorded as “only transient PBMC HA was observed”; in series [4] (highest continuous dose level of vorinostat (300 mg/m^2/dose)), “consistent PBMC HA”. The “Objective responses (CR or PR)” value in series [5] (all dose levels, 19 patients evaluable for response) is “No objective responses”. Also, the “Patients who received 11–15 cycles of therapy” value in series [5] (7/29 patients) is 24%. In addition, the “Patients completing ≥4 cycles without tumor progression” value in series [5] (11 of the 29 patients) came out at 38%. Moreover, the “6-month PFS rate” value in series [5] (entire cohort of 29 patients) is reported as 0.36 ± 0.09. In series [5] (entire cohort of 29 patients, 95% confidence interval 1.6–11.0 months), the “Median PFS” value turned out to be 2.0 months. For the same compound, in series [6], the “Event-free survival compared to control-treated mice” value was “statistically significant prolongation in event-free survival”. Also, the “Percent change from baseline in HA levels, dose level 5 compared to dose levels 1–4” value in series [7] (1 hr post treatment, P = 0.009, difference persisted at hours 6 and 24) is “significantly greater”. Besides, the “Mean percent change in histone acetylation (HA) levels from baseline” value is recorded as 18.5% in series [7] (dose level 5, hour 1, 6 patients); 21.9% in series [7] (dose level 5, hour 6, 6 patients); 14.4% in series [7] (dose level 5, hour 24, 5 patients); “–3.9%” in series [7] (dose levels 1–4, hour 1, 7 patients); “–2.9%” in series [7] (dose levels 1–4, hour 6, 5 patients).
Take `CC1=C(/C=C/C(C)=C/C=C/C(C)=C\C(=O)O)C(C)(C)CCC1` [isotretinoin, cis-13-retinoic acid]: the concentration at 4 h in series [8] (Median serum concentration) was 830 ng/mL; in series [8] (Serum concentration, range), 190 to 1400 ng/mL.
